Laboratory results: paper PMC4485237, “SPECT/CT Imaging of High-Risk Atherosclerotic Plaques using Integrin-Binding RGD Dimer Peptides” (Scientific Reports, 2015)

Biological target: T1, integrin αvβ3 (Mus musculus, UniProt O54890+P43406)
T1 construct: from tissue; host or cells: aorta (atherosclerotic plaque and normal regions) of living ApoE-/- and wild-type C57BL/6J mice
T1 sequence (P43406 31-1044): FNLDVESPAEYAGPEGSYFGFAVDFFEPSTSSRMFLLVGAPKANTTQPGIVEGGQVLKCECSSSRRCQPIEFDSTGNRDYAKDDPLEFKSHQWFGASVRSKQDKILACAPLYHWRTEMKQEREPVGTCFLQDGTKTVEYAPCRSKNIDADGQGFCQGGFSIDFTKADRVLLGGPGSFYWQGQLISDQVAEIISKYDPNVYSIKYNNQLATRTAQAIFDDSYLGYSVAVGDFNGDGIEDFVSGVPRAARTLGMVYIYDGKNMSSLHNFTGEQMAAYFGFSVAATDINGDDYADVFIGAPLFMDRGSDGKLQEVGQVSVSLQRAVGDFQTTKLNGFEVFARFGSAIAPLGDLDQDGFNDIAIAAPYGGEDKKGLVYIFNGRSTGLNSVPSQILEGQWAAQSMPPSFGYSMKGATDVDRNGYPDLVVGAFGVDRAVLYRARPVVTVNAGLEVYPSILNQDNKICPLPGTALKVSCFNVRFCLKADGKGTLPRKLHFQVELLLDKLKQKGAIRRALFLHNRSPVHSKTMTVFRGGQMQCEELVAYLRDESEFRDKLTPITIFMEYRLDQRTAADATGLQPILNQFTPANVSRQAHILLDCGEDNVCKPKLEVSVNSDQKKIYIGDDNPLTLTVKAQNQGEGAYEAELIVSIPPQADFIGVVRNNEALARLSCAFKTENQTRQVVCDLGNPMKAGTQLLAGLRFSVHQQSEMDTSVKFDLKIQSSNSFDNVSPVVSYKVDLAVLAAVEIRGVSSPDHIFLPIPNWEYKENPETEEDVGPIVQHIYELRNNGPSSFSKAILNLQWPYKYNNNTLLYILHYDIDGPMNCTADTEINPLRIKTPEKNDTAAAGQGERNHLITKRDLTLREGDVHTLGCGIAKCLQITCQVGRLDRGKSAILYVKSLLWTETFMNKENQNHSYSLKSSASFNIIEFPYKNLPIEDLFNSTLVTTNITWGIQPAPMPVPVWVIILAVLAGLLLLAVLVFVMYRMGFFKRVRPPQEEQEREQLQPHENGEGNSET
T1 sequence (O54890 26-787): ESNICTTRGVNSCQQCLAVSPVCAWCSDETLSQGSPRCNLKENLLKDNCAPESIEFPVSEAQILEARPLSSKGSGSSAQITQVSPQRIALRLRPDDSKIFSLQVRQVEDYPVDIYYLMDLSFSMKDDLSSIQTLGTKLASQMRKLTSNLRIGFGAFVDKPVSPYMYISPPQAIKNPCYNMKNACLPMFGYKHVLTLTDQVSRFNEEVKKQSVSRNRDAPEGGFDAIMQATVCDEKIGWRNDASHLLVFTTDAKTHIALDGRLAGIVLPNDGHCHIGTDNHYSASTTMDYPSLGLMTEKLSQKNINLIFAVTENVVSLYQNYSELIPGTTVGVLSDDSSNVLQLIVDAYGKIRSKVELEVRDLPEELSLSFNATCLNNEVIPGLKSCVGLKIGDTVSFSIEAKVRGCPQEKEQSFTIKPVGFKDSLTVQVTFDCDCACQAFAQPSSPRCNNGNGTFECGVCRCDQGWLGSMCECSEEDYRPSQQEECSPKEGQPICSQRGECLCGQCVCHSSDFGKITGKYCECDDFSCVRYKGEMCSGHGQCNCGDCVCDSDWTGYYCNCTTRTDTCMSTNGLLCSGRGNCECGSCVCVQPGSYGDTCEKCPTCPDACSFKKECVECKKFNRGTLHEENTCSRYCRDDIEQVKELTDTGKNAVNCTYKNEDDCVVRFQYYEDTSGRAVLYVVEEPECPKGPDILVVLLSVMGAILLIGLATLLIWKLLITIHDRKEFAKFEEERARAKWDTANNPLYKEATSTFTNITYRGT
Assay: In vivo SPECT/CT imaging and ROI quantification of radiotracer uptake in aorta of atherosclerotic (ApoE-/-, high-cholesterol diet) and wild-type mice
Settings: 30 min post-injection, RGD and RAD tracers in the same mouse on consecutive days
Description: All animal experiments were carried out in accordance with the approved guidelines by the Seoul National University Bundang Hospital Animal Care and Use Committee. Apolipoprotein E knock out mice (male, n = 10) and C57BL/6J mice (male, n = 3) were purchased from the Jackson Laboratory (Bar Harbor, Maine, USA) at 8–10 weeks of age. The ApoE-/- mice were maintained on a high-cholesterol diet (0.2% total cholesterol, Harlan Laboratories, Indianapolis, IN, USA) for 40 weeks. At the time of imaging experiment, the mice had substantial atherosclerotic lesion growth resembling vulnerable plaques in humans. Wild-type mice with the C57BL/6J genetic background had been maintained on a regular diet and were used for the disease controls.
We anesthetized mice with 2% isoflurane gas anesthesia. […] The analysis software HiSPECT (Version 1.0, Bioscan Inc., Poway, CA, USA) and InVivoScope (Version 1.43, Bioscan Inc., Poway, CA, USA) were used for image reconstruction and quantification, respectively. […] Manually drawn two-dimensional regions of interest (ROIs) or three-dimensional volumes of interest (VOIs) were used to determine the accumulated radioactivity in units of %ID/g (with decay corrected to the time of injection) using 37–55.5 MBq radioactivity of ^99mTc as the reference source.

With `[O]=[99Tc](=[O])(=[O])[O-]` [^99mTc-pertechnetate] the “SPECT uptake in aortic arch region containing atherosclerotic plaques (in words)” value was “no specific accumulation”.
